Target: T1, Aβ1-40 peptide (Homo sapiens, UniProt P05067)
T1 construct: An Aβ1-40 peptide monomer stock solution was prepared by dissolving the peptide in dimethylsulfoxide
Assay: Inhibition of aggregation of monomeric Aβ1-40 peptide stimulated by a seed of pre-formed sonicated Aβ1-40 amyloid fibrils (HPLC of residual monomer)
Type: biochemical
Conditions: 20 μM Aβ1-40 monomer, 50 μM test compound, 4 μM pre-formed sonicated Aβ1-40 fibrils, 2 h at 37° C., pH 7.4
Method: The compounds disclosed in the present invention interfere with the aggregation of monomeric Aβ1-40 peptide stimulated by a seed of Aβ1-40 amyloid fibrils. The activity of the compounds was assessed according to the procedure reported below.
An Aβ1-40 peptide monomer stock solution was prepared by dissolving the peptide in dimethylsulfoxide at a concentration of 33.33 mg/ml. The stock solution was further diluted 11.5 times with dimethylsulfoxide. This solution was then diluted with 10 mM phosphate buffer pH 7.4 containing 150 mM sodium chloride to prepare the test solution. To an eppendorf tube containing 47 μl of Aβ1-40 peptide monomer solution were added 3 μl of a 830 μM water solution of the test compound containing 66.4 μM, based on the Aβ1-40 monomer content, of pre-formed sonicated Aβ1-40 fibrils: the resulting solution was 20 μM in Aβ1-40 monomer, 50 μM in the test compound and contained 4 μM, based on the Aβ1-40 monomer content, of pre-formed sonicated Aβ1-40 fibrils. The aggregation was allowed to proceed for two hours at 37° C. The suspension was then centrifuged at 15000 rpm for 15 minutes at +4° C., the supernatant was collected and the Aβ1-40 monomer was quantitated by HPLC. The activity is expressed as the percent of inhibition of the aggregation of a 20 μM Aβ1-40 monomer solution stimulated by 4 μM, based on the Aβ1-40 monomer content, pre-formed sonicated Aβ1-40 fibrils.

T1 sequence (P05067 672-711 limits assumed): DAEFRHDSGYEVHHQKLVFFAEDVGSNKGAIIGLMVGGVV

% inhibition	SMILES
11.4%	COc1cccc2c1C(=O)c1c(O)c3c(c(O)c1C2=O)CC(O)(C(=O)CN1CCOCC1)CC3 (stereo not shown) [Compound A17, 7-deoxy-14-(4-morpholinyl)-daunomycinone, reference compound]
47.3%	COc1cccc2c1C(=O)c1c(O)c3c(c(O)c1C2=O)CC(O)(C(O)CN1CC=CCC1)CC3 [Compound 1d, (13R)-7-deoxy-13-dihvdro-14-(1,2,3,6-tetrahydropyridin-1-yl)daunomycinone]
74.1%	COc1cccc2c1C(=O)c1c(O)c3c(c(O)c1C2=O)CC(O)(C(=O)CN1CC=CCC1)CC3O (stereo not shown) [Compound 1a, 14-(1,2,3,6-tetrahydropyridin-1-yl)daunomycinone]
52.1%	COc1cccc2c1C(=O)c1c(O)c3c(c(O)c1C2=O)CC(O)(C(=O)CN1CC=CCC1)CC3N1CCOCC1 (stereo not shown) [Compound 1k, 7-deoxy-7-(4-morpholinyl) -14-(1,2,3,6-tetrahydropyridin-1-yl)daunomycinone]
